This is an account of results in ChEMBL document CHEMBL2074032, “Involvement of MDR1 P-glycoprotein in multifactorial resistance to methotrexate” (Int J Cancer, 1996).

The series deals with ATP-dependent translocase ABCB1 (Homo sapiens, UniProt P08183). Briefly: TP_TRANSPORTER: intracellular accumulation in CEM/MTX R cells. In kind it is functional, cell-based.
Chain of ATP-dependent translocase ABCB1 (P08183 whole entry): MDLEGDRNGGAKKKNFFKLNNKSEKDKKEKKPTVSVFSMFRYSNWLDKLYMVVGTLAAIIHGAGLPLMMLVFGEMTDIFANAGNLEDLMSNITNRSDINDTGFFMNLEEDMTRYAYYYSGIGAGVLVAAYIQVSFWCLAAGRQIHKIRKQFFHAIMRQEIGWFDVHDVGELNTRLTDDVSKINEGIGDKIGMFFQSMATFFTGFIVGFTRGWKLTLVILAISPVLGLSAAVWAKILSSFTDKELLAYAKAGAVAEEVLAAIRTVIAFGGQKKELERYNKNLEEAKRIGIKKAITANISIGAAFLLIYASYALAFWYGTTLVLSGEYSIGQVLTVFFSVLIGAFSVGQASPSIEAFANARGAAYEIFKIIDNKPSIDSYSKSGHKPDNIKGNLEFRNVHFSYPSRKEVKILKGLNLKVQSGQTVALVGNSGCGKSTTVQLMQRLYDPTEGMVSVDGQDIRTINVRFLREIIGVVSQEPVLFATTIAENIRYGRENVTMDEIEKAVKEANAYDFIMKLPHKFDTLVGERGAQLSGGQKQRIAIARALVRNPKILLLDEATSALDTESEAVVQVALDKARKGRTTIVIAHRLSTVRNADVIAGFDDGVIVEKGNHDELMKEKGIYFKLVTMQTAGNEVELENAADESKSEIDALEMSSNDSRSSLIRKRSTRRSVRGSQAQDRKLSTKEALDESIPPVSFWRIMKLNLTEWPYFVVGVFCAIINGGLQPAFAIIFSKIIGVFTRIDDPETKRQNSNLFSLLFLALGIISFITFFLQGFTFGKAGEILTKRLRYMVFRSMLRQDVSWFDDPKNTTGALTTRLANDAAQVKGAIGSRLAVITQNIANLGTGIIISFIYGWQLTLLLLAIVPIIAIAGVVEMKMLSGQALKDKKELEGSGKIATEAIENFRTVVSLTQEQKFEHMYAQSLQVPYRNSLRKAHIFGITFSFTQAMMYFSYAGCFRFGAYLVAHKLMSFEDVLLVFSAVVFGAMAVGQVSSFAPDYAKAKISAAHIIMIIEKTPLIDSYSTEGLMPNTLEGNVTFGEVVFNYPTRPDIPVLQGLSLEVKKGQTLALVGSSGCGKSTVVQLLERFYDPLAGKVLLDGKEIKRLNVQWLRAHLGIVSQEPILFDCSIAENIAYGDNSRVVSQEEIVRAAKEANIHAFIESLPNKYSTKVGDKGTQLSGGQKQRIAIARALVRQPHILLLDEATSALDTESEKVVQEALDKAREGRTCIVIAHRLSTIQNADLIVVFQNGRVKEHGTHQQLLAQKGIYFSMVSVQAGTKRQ

Regarding `CN(Cc1cnc2nc(N)nc(N)c2n1)c1ccc(C(=O)N[C@@H](CCC(=O)O)C(=O)O)cc1` [METHOTREXATE], the Activity result is “substrate [+]”.
